How the values were obtained:
[1] = target: dopamine transporter (DAT) (Homo sapiens, UniProt Q01959); experiment: CNS receptor testing, affinity at dopamine transporter; format: binding; conditions: for affinity and selectivity for the dopamine transporter (DAT): result in words
Experimental: The compounds were tested for affinity at various central nervous system receptors.

[2] = system: prostate cancer PC3 cells; experiment: NCI 60 cell cancer screen, multiple dose study (dose-response) in PC3 cells; format: cell-based; conditions: FIG. 2
Experimental: FIG. 2 provides data from a multiple dose study (dose-response) performed in prostate cancer PC3 cells.
(§1) A multiple dose study (dose-response) was then performed using Compound 8 across multiple cancer cell lines. […] A multiple dose study (dose-response) was then performed in PC3 cells using Compound 9. […] (See FIG. 2) The data was generated according to the National Cancer Institute (NCI) 60 cell cancer screen.

cancer cell lines = experiment: National Cancer Institute (NCI) 60 cell cancer screen, growth inhibition; format: cell-based; conditions: multiple dose study (dose-response); leukemia, non-small cell, colon, CNS, melanoma, ovarian, renal, prostate, breast cancer cell lines (FIGS. 3-11)
Experimental: as §1

Chain of dopamine transporter (DAT) (Q01959 whole entry, species assumed): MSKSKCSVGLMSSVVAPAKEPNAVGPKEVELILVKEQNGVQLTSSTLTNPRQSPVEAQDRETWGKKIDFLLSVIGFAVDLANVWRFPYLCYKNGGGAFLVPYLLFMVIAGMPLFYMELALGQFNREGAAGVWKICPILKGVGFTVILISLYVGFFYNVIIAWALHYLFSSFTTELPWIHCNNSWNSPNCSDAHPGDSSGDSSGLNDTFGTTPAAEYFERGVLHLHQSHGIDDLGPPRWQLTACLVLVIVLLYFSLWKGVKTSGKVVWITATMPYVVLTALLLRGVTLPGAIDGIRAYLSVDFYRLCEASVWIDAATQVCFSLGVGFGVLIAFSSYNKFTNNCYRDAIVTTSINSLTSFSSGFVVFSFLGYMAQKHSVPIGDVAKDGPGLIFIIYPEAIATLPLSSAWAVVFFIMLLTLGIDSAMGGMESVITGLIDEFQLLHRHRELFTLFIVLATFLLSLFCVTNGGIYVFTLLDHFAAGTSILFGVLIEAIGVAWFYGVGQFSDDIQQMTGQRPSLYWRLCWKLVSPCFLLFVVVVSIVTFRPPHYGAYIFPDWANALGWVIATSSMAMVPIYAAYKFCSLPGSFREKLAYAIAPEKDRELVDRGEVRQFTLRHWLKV

| SMILES | Ki [1] | affinity and selectivity for the dopamine transporter (DAT) [1] | growth inhibition of PC3 cells [2] | growth inhibition across multiple cancer cell lines (cancer cell lines) |
| --- | --- | --- | --- | --- |
| CCCCCc1cc(NC(=O)CCCC)c2c(c1)OC(C)(CCC=C(C)C)C=C2 (stereo not drawn) [Compound 12] | 107 nM | good affinity and selectivity |  |  |
| CCCCCc1cc(NC(=O)CC(F)(F)F)c2c(c1)OC(C)(CCC=C(C)C)C=C2 (stereo not drawn) [Compound 9] |  |  | inhibits the growth |  |
| CCCCCc1cc(NC(=O)C(Cl)Cl)c2c(c1)OC(C)(CCC=C(C)C)C=C2 (stereo not drawn) [Compound 8] |  |  |  | provided growth inhibition |
| CCCCCc1cc(NC(=O)C(F)(F)Br)c2c(c1)OC(C)(CCC=C(C)C)C=C2 (stereo not drawn) [Compound 10] | 85 nM | good affinity and selectivity |  |  |

Reference: US12466801B2, “Cannabichromene derivatives and use thereof” (Remedy Processors LLC, priority 2023, dated 2025)
